The numbers were not newly measured in patent US20220395496A1 (Hoffmann-La Roche Inc., priority 2019, published 2022), which cites them from elsewhere.

One series addresses T1, HEK/hTLR7 (Homo sapiens, UniProt Q9NYK1).
T1 construct: host or cells: HEK cells
T1 sequence (Q9NYK1 27-1049): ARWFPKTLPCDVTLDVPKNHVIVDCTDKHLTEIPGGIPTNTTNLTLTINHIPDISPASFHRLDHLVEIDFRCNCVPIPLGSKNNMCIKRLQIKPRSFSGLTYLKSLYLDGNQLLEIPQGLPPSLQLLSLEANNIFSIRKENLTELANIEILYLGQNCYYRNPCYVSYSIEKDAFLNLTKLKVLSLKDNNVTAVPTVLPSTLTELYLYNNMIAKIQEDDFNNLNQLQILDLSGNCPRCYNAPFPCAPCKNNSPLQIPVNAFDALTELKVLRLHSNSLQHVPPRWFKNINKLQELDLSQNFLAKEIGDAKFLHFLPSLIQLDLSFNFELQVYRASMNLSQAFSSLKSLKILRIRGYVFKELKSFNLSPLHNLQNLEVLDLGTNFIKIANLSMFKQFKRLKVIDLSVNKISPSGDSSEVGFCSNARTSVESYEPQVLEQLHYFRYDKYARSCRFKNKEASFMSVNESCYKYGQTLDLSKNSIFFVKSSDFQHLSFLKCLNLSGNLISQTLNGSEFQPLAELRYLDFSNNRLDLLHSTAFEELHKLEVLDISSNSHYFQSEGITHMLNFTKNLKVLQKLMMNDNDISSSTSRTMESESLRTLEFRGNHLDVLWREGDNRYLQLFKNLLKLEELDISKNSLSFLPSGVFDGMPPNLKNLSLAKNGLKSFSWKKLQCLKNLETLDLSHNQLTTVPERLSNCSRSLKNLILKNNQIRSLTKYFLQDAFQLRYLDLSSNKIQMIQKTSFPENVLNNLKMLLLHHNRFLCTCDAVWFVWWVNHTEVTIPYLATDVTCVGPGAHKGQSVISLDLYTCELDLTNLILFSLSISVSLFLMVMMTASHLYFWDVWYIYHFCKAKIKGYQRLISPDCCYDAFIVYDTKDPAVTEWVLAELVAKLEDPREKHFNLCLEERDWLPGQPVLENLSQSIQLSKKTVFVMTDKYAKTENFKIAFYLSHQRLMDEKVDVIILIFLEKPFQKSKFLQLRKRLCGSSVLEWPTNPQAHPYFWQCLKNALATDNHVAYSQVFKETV
To be noted: data disclosed in WO2015057655; cited from earlier work.

The target of another series is T2, HEK/hTLR9 (Homo sapiens, UniProt Q9NR96).
T2 construct: host or cells: HEK cells
T2 sequence (Q9NR96 26-1032): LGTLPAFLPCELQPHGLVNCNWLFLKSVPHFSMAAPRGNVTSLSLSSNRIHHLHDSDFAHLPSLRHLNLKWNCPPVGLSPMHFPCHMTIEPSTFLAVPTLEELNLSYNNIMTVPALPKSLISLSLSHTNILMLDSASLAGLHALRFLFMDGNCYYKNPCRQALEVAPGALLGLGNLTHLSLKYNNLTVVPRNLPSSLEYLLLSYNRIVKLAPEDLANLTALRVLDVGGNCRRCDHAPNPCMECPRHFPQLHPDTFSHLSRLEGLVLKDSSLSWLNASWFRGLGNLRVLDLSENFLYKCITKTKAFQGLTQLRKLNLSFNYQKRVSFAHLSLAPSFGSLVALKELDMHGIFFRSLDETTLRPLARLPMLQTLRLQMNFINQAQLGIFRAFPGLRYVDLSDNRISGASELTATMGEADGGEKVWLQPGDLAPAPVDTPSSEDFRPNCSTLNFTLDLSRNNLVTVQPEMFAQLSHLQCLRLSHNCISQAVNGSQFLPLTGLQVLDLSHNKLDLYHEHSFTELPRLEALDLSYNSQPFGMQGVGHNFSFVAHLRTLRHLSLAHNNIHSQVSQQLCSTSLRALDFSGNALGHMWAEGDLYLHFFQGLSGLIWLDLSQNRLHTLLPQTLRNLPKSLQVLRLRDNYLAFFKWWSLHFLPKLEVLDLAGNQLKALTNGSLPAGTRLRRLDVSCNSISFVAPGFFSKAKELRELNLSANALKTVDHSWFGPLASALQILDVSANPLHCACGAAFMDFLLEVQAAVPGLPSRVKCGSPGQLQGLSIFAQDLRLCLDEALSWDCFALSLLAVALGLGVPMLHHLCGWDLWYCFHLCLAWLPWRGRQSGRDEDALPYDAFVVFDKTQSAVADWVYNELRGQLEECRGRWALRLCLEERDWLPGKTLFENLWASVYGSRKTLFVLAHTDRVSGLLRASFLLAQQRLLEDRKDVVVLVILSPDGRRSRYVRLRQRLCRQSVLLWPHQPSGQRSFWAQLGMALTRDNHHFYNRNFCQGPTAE
To be noted: data disclosed in WO2015057655; cited from earlier work.

A word on the IC50: it is the concentration at which inhibition is half-maximal. Regarding `C[C@H]1C[C@@H](NCc2ccc(C(F)(F)F)cn2)CN(c2ccc(C#N)c3ncccc23)C1` [ER-899543], the IC50 on HEK/hTLR7 is 48 nM; at HEK/hTLR9 it was over 10000 nM.
For the compound `C[C@H]1C[C@@H](NCc2ncco2)CN(c2ccc(C#N)c3ncccc23)C1` [ER-899551], the values for the concentration for half-maximal inhibition (IC50) at HEK/hTLR7 and on HEK/hTLR9 were 43 nM and over 10000 nM, respectively.
On to `C[C@H]1C[C@@H](NCc2cn(C)cn2)CN(c2ccc(C#N)c3ncccc23)C1` [ER-899552], for which the values for the IC50 on HEK/hTLR7 and at HEK/hTLR9 were 207 nM and 1970 nM, respectively.
For the compound `CC(N[C@@H]1C[C@H](C)CN(c2ccc(C#N)c3ncccc23)C1)c1ccccn1` (some centres unmarked) [ER-899607], the half-maximal inhibitory concentration (IC50) at HEK/hTLR7 is 149 nM; on HEK/hTLR9 it was over 10000 nM.
